Earlier results as cited in patent US10968292B2, “Synthetic polymer film whose surface has microbicidal activity, photocurable resin composition, manufacturing method of synthetic polymer film, and sterilization method with use of surface of synthetic polymer film” (SHARP KABUSHIKI KAISHA, priority 2017, dated 2021).

Conditions: monomers; YES/NO
For “polyethylene glycol (200) diacrylate [Example M282]”, the “Water Solubility” value is listed as “YES”.
In the case of “polyethylene glycol (400) diacrylate [Example M280]”, the “Water Solubility” value is listed as “YES”.

Same assay, conditions: organic acids; water at about 20° C. to about 25° C.
In the case of `O=C(O)CCCCCCCCCCC(=O)O` [Dodecanedioic Acid, dodecanedioic acid], the “Water Solubility (solubility index)” value is given as 7 (Practically insoluble • Not less than 10000 mL).
For `O=P(O)(O)Oc1ccccc1` [PPA, phenylphosphate], the “Water Solubility (solubility index)” value is given as 1 (Very soluble • Less than 1 mL).
In the case of `O=C(O)CCCCCCC(=O)O` [Suberic Acid, octanedioic acid], the “Water Solubility (solubility index)” value is listed as 5 (Slightly soluble • Equal to or greater than 100 mL and less than 1000 mL).
In the case of `Cc1cc(C)c(C(=O)O)c(C)c1` [TMBA, 2,4,6-trimethylbenzoic acid], the “Water Solubility (solubility index)” value is given as 6 (Very slightly soluble • Equal to or greater than 1000 mL and less than 10000 mL).
